Measurements published in patent US10231453B2, “5-substituted imidazole derivatives” (BAYER CROPSCIENCE AKTIENGESELLSCHAFT, priority 2015, dated 2019).
Read-outs that look alike come from different tables or passages of the source.

Key:
Alternaria brassicae = test: In vivo preventive test on Alternaria brassicae (leaf spot on radish), Examples A and R1
[1] = Measurement of LogP values by HPLC on reversed phase columns (EEC directive 79/831 Annex V.A8); assay type: physicochemical; conditions: method [a]: LC-UV, acidic range, 0.1% formic acid in water and acetonitrile as eluent; Table 1
Procedure: Measurement of Log P values was performed as outlined above.

Puccinia recondita = test: In vivo preventive test on Puccinia recondita (brown rust on wheat), Examples C and R3; conditions: Puccinia recondita, 264 h, preventive spray, evaluated 11 days after inoculation
Septoria tritici = test: In vivo preventive test on Septoria tritici (leaf spot on wheat), Examples E, Q3 and R5; conditions: Zymoseptoria tritici, 576 h, preventive spray, evaluated 24 days after inoculation
Sphaerotheca fuliginea = test: In vivo preventive test on Sphaerotheca fuliginea (powdery mildew on cucurbits), Examples F and R6; conditions: Podosphaera fuliginea, 360 h, preventive spray, evaluated 15 days after inoculation
Uromyces appendiculatus = test: In vivo preventive test on Uromyces appendiculatus (bean rust), Examples G and R7; conditions: 264 h, preventive spray, evaluated 11 days after inoculation
Alternaria solani = test: In vivo preventive Alternaria test (tomatoes), Example H; conditions: 72 h, 100 ppm of active ingredient, preventive spray, evaluated 3 days after inoculation, read-out: efficacy
Botrytis cinerea = test: In vivo preventive test on Botrytis cinerea (grey mould) on gherkin, Examples B, Q1 and R2; conditions: Botrytis cinerea, 500 ppm of active ingredient, preventive spray, evaluated 4 to 5 days after inoculation, read-out: efficacy
Phakopsora pachyrhizi = test: In vivo preventive Phakopsora test (soybeans), Example I; conditions: 168 h, 100 ppm of active ingredient, preventive spray, evaluated 7 days after inoculation, read-out: efficacy
Pyrenophora teres = test: In vivo preventive test on Pyrenophora teres (net blotch on barley), Examples D, Q2 and R4; conditions: Pyrenophora teres, 336 h, 500 ppm of active ingredient, preventive spray, evaluated 14 days after inoculation, read-out: efficacy
Pyricularia oryzae = test: whole plant or invertebrate; assay type: in vivo; conditions: 192 h, read-out: efficacy
[2] = test system: Blumeria graminis fsp. hordei; test: In vivo preventive Blumeria test (barley), Example K; conditions: 168 h, 500 ppm of active ingredient, preventive spray, evaluated 7 days after inoculation, read-out: efficacy
From the text: After the spray coating has been dried, the plants are dusted with spores of Blumeria graminis fsp. hordei.

[3] = Alternaria brassicae, 144 h, 500 ppm of active ingredient, preventive spray, evaluated 6 days after inoculation, read-out: efficacy
[4] = 500 ppm of active ingredient, wheat, read-out: efficacy
[5] = 500 ppm of active ingredient, gherkin, read-out: efficacy
[6] = 500 ppm of active ingredient, bean, read-out: efficacy

SMILES: OC(Cc1ccc(Cl)cc1F)(Cn1ccc(Cl)c1)C1(Cl)CC1 (racemic) [reference compound]
- Efficacy in % (Alternaria brassicae; Example R1, rate of application 100 ppm): 0%
- Efficacy in % (Alternaria brassicae; Example R1, rate of application 500 ppm): 0%

SMILES: Cc1cncn1CC(O)(Cc1ccccc1Cl)C1(Cl)CC1 (stereo not drawn) [Example I-03]
- chromatographic logP [1]: 1.72
- pest or weed control at 500 ppm (Alternaria brassicae; [3]): 80 to 89%
- pest or weed control at 100 ppm (Alternaria brassicae; Alternaria brassicae, 144 h, Example R1, rate of application 100 ppm, read-out: Efficacy in %): 0%
- pest or weed control at 500 ppm (Alternaria brassicae; Alternaria brassicae, 144 h, Example R1, rate of application 500 ppm, read-out: Efficacy in %): 83%
- pest or weed control at 500 ppm (Puccinia recondita; [4]): 80 to 89%
- pest or weed control at 100 ppm (Puccinia recondita; Example R3, wheat, 100 ppm, read-out: Efficacy in %): 86%
- pest or weed control at 500 ppm (Puccinia recondita; Example R3, wheat, 500 ppm, read-out: Efficacy in %): 86%
- pest or weed control at 500 ppm (Septoria tritici; [4]): 90 to 100%
- pest or weed control at 100 ppm (Septoria tritici; Example R5, wheat, 100 ppm, read-out: Efficacy in %): 83%
- pest or weed control at 500 ppm (Septoria tritici; Example R5, wheat, 500 ppm, read-out: Efficacy in %): 100%
- pest or weed control at 500 ppm (Sphaerotheca fuliginea; [5]): 90 to 100%
- pest or weed control at 100 ppm (Sphaerotheca fuliginea; Example R6, gherkin, 100 ppm, read-out: Efficacy in %): 85%
- pest or weed control at 500 ppm (Sphaerotheca fuliginea; Example R6, gherkin, 500 ppm, read-out: Efficacy in %): 100%
- pest or weed control at 500 ppm (Uromyces appendiculatus; [6]): 90 to 100%
- pest or weed control at 100 ppm (Uromyces appendiculatus; Example R7, bean, 100 ppm, read-out: Efficacy in %): 81%
- pest or weed control at 500 ppm (Uromyces appendiculatus; Example R7, bean, 500 ppm, read-out: Efficacy in %): 100%

SMILES: OC(Cn1cncc1Cl)(C(F)c1ccccc1Cl)C1(Cl)CC1 (stereo not drawn) [Example I-05]
- chromatographic logP [1]: 2.17
- pest or weed control at 100 ppm (Alternaria solani): 70 to 79%
- pest or weed control at 500 ppm (Botrytis cinerea): 90 to 100%
- pest or weed control at 500 ppm (Puccinia recondita; [4]): 80 to 89%
- pest or weed control at 500 ppm (Septoria tritici; [4]): 80 to 89%
- pest or weed control at 500 ppm (Sphaerotheca fuliginea; [5]): 90 to 100%
- pest or weed control at 100 ppm (Phakopsora pachyrhizi): 90 to 100%
- pest or weed control at 500 ppm (Uromyces appendiculatus; [6]): 90 to 100%

SMILES: Cc1cncn1CC(O)(C(F)c1ccccc1Cl)C1(Cl)CC1 (stereo not drawn) [Example I-13]
- chromatographic logP [1]: 1.75
- pest or weed control at 500 ppm (Botrytis cinerea): 80 to 89%
- pest or weed control at 500 ppm (Alternaria brassicae; [3]): 70 to 79%
- pest or weed control at 500 ppm (Puccinia recondita; [4]): 80 to 89%
- pest or weed control at 500 ppm (Septoria tritici; [4]): 90 to 100%
- pest or weed control at 500 ppm (Sphaerotheca fuliginea; [5]): 90 to 100%
- pest or weed control at 500 ppm (Pyrenophora teres): 80 to 89%

SMILES: OC(Cc1ccccc1Cl)(Cn1cncc1C(F)(F)F)C1(Cl)CC1 (stereo not drawn) [Example I-15]
- chromatographic logP [1]: 3.63
- pest or weed control at 500 ppm (Botrytis cinerea): 70 to 79%
- pest or weed control at 500 ppm (Alternaria brassicae; [3]): 90 to 100%
- pest or weed control at 500 ppm (Puccinia recondita; [4]): 80 to 89%
- pest or weed control at 500 ppm (Septoria tritici; [4]): 90 to 100%
- pest or weed control at 500 ppm (Sphaerotheca fuliginea; [5]): 90 to 100%
- pest or weed control at 500 ppm (Pyrenophora teres): 90 to 100%
- pest or weed control at 500 ppm (Uromyces appendiculatus; [6]): 90 to 100%

SMILES: CC(=O)c1cncn1CC(O)(Cc1ccccc1Cl)C1(Cl)CC1 (stereo not drawn) [Example I-19]
- pest or weed control at 500 ppm (Alternaria brassicae; [3]): 80 to 89%
- pest or weed control at 500 ppm (Puccinia recondita; [4]): 90 to 100%
- pest or weed control at 500 ppm (Septoria tritici; [4]): 90 to 100%
- pest or weed control at 500 ppm (Sphaerotheca fuliginea; [5]): 90 to 100%
- pest or weed control at 500 ppm (Pyrenophora teres): 80 to 89%

SMILES: OC(Cc1ccccc1Cl)(Cn1cncc1-c1cccs1)C1(Cl)CC1 (stereo not drawn) [Example I-20]
- pest or weed control at 500 ppm (Alternaria brassicae; [3]): 80 to 89%
- pest or weed control at 500 ppm (Puccinia recondita; [4]): 80 to 89%
- pest or weed control at 500 ppm (Septoria tritici; [4]): 80 to 89%
- pest or weed control at 500 ppm (Sphaerotheca fuliginea; [5]): 90 to 100%
- pest or weed control at 500 ppm (Uromyces appendiculatus; [6]): 90 to 100%

SMILES: CSc1cncn1CC(O)(Cc1ccccc1Cl)C1(Cl)CC1 (stereo not drawn) [Example I-22]
- chromatographic logP [1]: 2.08
- pest or weed control at 500 ppm (Alternaria brassicae; [3]): 80 to 89%
- pest or weed control at 500 ppm (Puccinia recondita; [4]): 90 to 100%
- pest or weed control at 500 ppm (Septoria tritici; [4]): 90 to 100%
- pest or weed control at 500 ppm (Sphaerotheca fuliginea; [5]): 90 to 100%
- pest or weed control at 500 ppm (Pyrenophora teres): 80 to 89%
- pest or weed control at 500 ppm (Uromyces appendiculatus; [6]): 90 to 100%
- pest or weed control at 500 ppm (Pyricularia oryzae): 80 to 89%
- pest or weed control at 500 ppm [2]: 90 to 100%

SMILES: OC(Cn1cncc1Br)(C(F)c1ccccc1Cl)C1(Cl)CC1 (stereo not drawn) [Example I-23]
- chromatographic logP [1]: 2.32
- pest or weed control at 500 ppm (Alternaria brassicae; [3]): 80 to 89%
- pest or weed control at 500 ppm (Puccinia recondita; [4]): 90 to 100%
- pest or weed control at 500 ppm (Septoria tritici; [4]): 90 to 100%
- pest or weed control at 500 ppm (Sphaerotheca fuliginea; [5]): 90 to 100%
- pest or weed control at 100 ppm (Phakopsora pachyrhizi): 90 to 100%
- pest or weed control at 500 ppm (Pyrenophora teres): 80 to 89%
- pest or weed control at 500 ppm (Uromyces appendiculatus; [6]): 90 to 100%

SMILES: OC(Cc1cccnc1Cl)(Cn1cncc1Br)C1(Cl)CC1 (stereo not drawn) [Example I-25]
- chromatographic logP [1]: 1.56
- pest or weed control at 500 ppm (Botrytis cinerea): 90 to 100%
- pest or weed control at 500 ppm (Puccinia recondita; [4]): 80 to 89%
- pest or weed control at 500 ppm (Septoria tritici; [4]): 90 to 100%
- pest or weed control at 500 ppm (Sphaerotheca fuliginea; [5]): 90 to 100%
- pest or weed control at 500 ppm (Pyrenophora teres): 80 to 89%
- pest or weed control at 500 ppm (Uromyces appendiculatus; [6]): 90 to 100%
- pest or weed control at 500 ppm (Pyricularia oryzae): 70 to 79%
- pest or weed control at 500 ppm [2]: 70 to 79%

SMILES: OC(Cc1ccc(Br)cc1Cl)(Cn1cncc1Cl)C1(Cl)CC1 (stereo not drawn) [Example I-43]
- pest or weed control at 100 ppm (Alternaria solani): 80 to 89%
- pest or weed control at 500 ppm (Botrytis cinerea): 90 to 100%
- pest or weed control at 500 ppm (Puccinia recondita; [4]): 90 to 100%
- pest or weed control at 500 ppm (Septoria tritici; [4]): 90 to 100%
- pest or weed control at 500 ppm (Sphaerotheca fuliginea; [5]): 90 to 100%
- pest or weed control at 100 ppm (Phakopsora pachyrhizi): 90 to 100%
- pest or weed control at 500 ppm (Pyrenophora teres): 90 to 100%
- pest or weed control at 500 ppm (Uromyces appendiculatus; [6]): 90 to 100%
- pest or weed control at 500 ppm [2]: 80 to 89%

SMILES: Cc1ccccc1CC(O)(Cn1cncc1C#N)C1(Cl)CC1 (stereo not drawn) [Example I-54]
- pest or weed control at 500 ppm (Botrytis cinerea): 90 to 100%
- pest or weed control at 500 ppm (Alternaria brassicae; [3]): 80 to 89%
- pest or weed control at 500 ppm (Puccinia recondita; [4]): 80 to 89%
- pest or weed control at 500 ppm (Septoria tritici; [4]): 90 to 100%
- pest or weed control at 500 ppm (Sphaerotheca fuliginea; [5]): 90 to 100%
- pest or weed control at 500 ppm (Pyrenophora teres): 80 to 89%
- pest or weed control at 500 ppm (Uromyces appendiculatus; [6]): 90 to 100%
